The nature of data set [1]: Cytotoxicity against human A549 cells assessed as cell viability at 0.05 mM after 24 hrs by MTT assay relative to control. Format: cell-based. As to conditions: read-out: Activity. For orientation: Tetrazolium assays rely on reduction of a dye to a coloured formazan, in cell work by metabolically active cells.
Data set [2] has as its system L929. Kind of data set: Cytotoxicity against mouse L929 cells after 24 hrs by MTT assay. As to conditions: L929, 24 h. Format: cell-based.
The nature of data set [3]: Cytotoxicity against mouse L929 cells assessed as cell viability at 0.05 mM after 24 hrs by MTT assay relative to control. Format: cell-based. Particulars: read-out: Activity.
Data set [4] is described as follows: Solubility of the compound in pH 7.4 PBS buffer by ultraviolet spectroscopic method. Format: physicochemical.
For data set [5], the system named is A549. Kind of data set: Cytotoxicity against human A549 cells after 24 hrs by MTT assay. Format: cell-based. Particulars: A549, 24 h.
Data set [6] in a line: Solubility of the compound in pH 7.4 PBS buffer containing 60% methanol by ultraviolet spectroscopic method. Format: physicochemical.
Data set [7] relates to Rattus norvegicus. In words: Anesthetic activity in Sprague-Dawley rat assessed as onset time for loss of righting reflex at 0.073 mmol/kg, iv for 10 secs. Format: functional.
Data set [8] can be described thus: Prodrug activation in Sprague-Dawley rat plasma assessed as propofol release at 4 mg after 20 mins by HPLC analysis. Format: cell-free.
Data set [9] concerns Rattus norvegicus. In words: Anesthetic activity in Sprague-Dawley rat assessed as anesthetic duration time at 0.073 mmol/kg, iv for 10 secs. Format: functional.
The nature of data set [10]: Prodrug activation in Sprague-Dawley rat plasma assessed as propofol release at 4 mg after 1 mins by HPLC analysis. Format: cell-free.
Data set [11] is described as follows: Critical micellar concentration of the compound in pyrene/acetone solution ultrasonicated for 30 mins followed by incubation in water bath at 60 degC for 40 mins and subsequent incubation at 40 degC for 12 hrs by fluorescence assay. Particulars: buffer. Format: physicochemical.
For data set [12], the system named is A549. Kind of data set: Cytotoxicity against human A549 cells assessed as reduction in cell viability up to 4 mM after 24 hrs by MTT assay. Format: cell-based. As to conditions: a549, 24 h.
Data set [13] deals with L929. In words: Cytotoxicity against mouse L929 cells assessed as reduction in cell viability up to 4 mM after 24 hrs by MTT assay. Format: cell-based. Particulars: l929, 24 h.
For data set [14], the system named is Rattus norvegicus. In words: Toxicity in Sprague-Dawley rat assessed as death at 0.073 mmol/kg, iv for 10 secs. Format: organism-based. Particulars: in vivo, 10 s.
Data set [15] is described as follows: Prodrug activation in Sprague-Dawley rat plasma assessed as propofol release at 4 mg after 24 hrs by HPLC analysis. Format: cell-free.
The nature of data set [16]: Prodrug activation in Sprague-Dawley rat plasma assessed as propofol release at 4 mg after 5 mins by HPLC analysis. Format: cell-free.

In brackets after ≈: the same amount, converted by molar mass.

A word on the EC50: it is the concentration that produces a half-maximal response. As usually defined, the solubility is the concentration that dissolves in the medium under given conditions. On to `COCCOCCOCCOCCOCC(=O)Oc1c(C(C)C)cccc1C(C)C`, for which the viability at 24 h, 50 µM in [1] and in data set [3] was greater than 90% each time. Further, the EC50 in the data set with L929 [2] was 440 µM; in the data set on A549 [5], 630 µM. In data set [4], the concentration in solution (solubility) was 1.58 mg/mL (≈ 3700 µM).
Take `COCCOCCOCOc1c(C(C)C)cccc1C(C)C`: the concentration in solution in data set [6] (solubility) came to 0.2 mg/mL (≈ 644 µM). Also, the viability at 24 h, 50 µM in data set [1] and in data set [3] was greater than 90% throughout. In addition, the EC50 was 4870 µM with L929 [2] and greater than 10000 µM in the data set on A549 [5].
Consider `COCCOCCOCCOCCOCCOCCOC(=O)Oc1c(C(C)C)cccc1C(C)C`, for which the viability at 24 h, 50 µM in data set [1] and in data set [3] was greater than 90% in each case. The EC50 with L929 [2] was determined as 510 µM; in the data set on A549 [5] it was 730 µM. This molecule returned a solubility in data set [4] of 0.83 mg/mL (≈ 1660 µM).
Regarding `COCCOCCOC(=O)Oc1c(C(C)C)cccc1C(C)C`, the solubility in data set [6] is 0.07 mg/mL (≈ 216 µM). Further, the viability at 24 h, 50 µM in data set [1] and in data set [3] was greater than 90% throughout. For the same molecule, the EC50 is 4600 µM in the data set with L929 [2] and greater than 10000 µM in the data set on A549 [5].
Take `COCCOCCOCCOCCOCCOCCOCC(=O)Oc1c(C(C)C)cccc1C(C)C`: the viability at 24 h, 50 µM in [1] and in [3] was greater than 90% in each case. Further, the EC50 in the data set on L929 [2] was 110 µM; in the data set with A549 [5], 520 µM. The same molecule came in with a solubility in data set [4] of 2.02 mg/mL (≈ 3920 µM).
In [6], `COCCOCCOCC(=O)Oc1c(C(C)C)cccc1C(C)C` showed a solubility of 0.42 mg/mL (≈ 1240 µM). The viability at 24 h, 50 µM in data set [1] and in data set [3] was greater than 90% in each case. Besides, the figures for the EC50 in the data set on L929 [2] and in the data set with A549 [5] were 1410 µM and 4150 µM, respectively.
With `COCCOCCOCCOCCOC(=O)Oc1c(C(C)C)cccc1C(C)C`, the viability at 24 h, 50 µM in [1] and in [3] was greater than 90% each time. Moreover, the EC50 in the data set on L929 [2] is 1390 µM; in the data set with A549 [5] it was 1360 µM. Moreover, the concentration in solution in data set [4] (solubility) came to 0.38 mg/mL (≈ 921 µM).
For `COCCOCCOCCOCCOCCOCCOCCOCCOCCOCCOC(=O)Oc1c(C(C)C)cccc1C(C)C`, the Time in the data set with Rattus norvegicus [7] worked out at 0 s; with Rattus norvegicus [9], 5.6 min. Moreover, the viability at 24 h, 50 µM in data set [1] and in [3] was greater than 90% in each case. For the same molecule, the concentration for a half-maximal effect (EC50) in the data set with L929 [2] came out at 420 µM; in the data set with A549 [5], 400 µM. For the same molecule, in data set [8], the Drug metabolism entry is “Metabolite_Detected”. This molecule showed a solubility in data set [4] greater than 315 mg/mL.
On to `COCCOCCOCCOCCOCCOCCOCCOCC(=O)Oc1c(C(C)C)cccc1C(C)C`, for which the Drug metabolism result in data set [10] was “Metabolite_Detected”. Moreover, the values for the Time in the data set with Rattus norvegicus [7] and with Rattus norvegicus [9] were 0 s and 10.5 min, respectively. Besides, the viability at 24 h, 50 µM in data set [1] and in data set [3] was greater than 90% each time. This molecule also had a CMC in data set [11] of 1.3 mM. The EC50 in the data set on L929 [2] is 120 µM; with A549 [5], 520 µM. Moreover, the solubility in data set [4] is greater than 216 mg/mL.
Turning to `COCCOCCOCCOCCOCCOCCOCCOC(=O)Oc1c(C(C)C)cccc1C(C)C`, the viability at 24 h, 50 µM in data set [1] and in data set [3] was greater than 90% throughout. In data set [11], this molecule returned a CMC of 1.5 mM. For the same molecule, the EC50 with L929 [2] stood at 110 µM; in the data set with A549 [5] it was 500 µM. The same molecule yielded a solubility in data set [4] of 2.73 mg/mL (≈ 5010 µM).
Take `COCCOCCOCCOCCOCOc1c(C(C)C)cccc1C(C)C`: the viability at 24 h, 50 µM in data set [1] and in [3] was greater than 90% each time. In addition, the figures for the EC50 in the data set with L929 [2] and in the data set with A549 [5] were 900 µM and 1730 µM, respectively. In [4], this molecule gave a solubility of 0.57 mg/mL (≈ 1430 µM).
For the molecule `COCCOCCOCCO`, the Activity entry with A549 [12] and in the data set on L929 [13] was “Non-Toxic” in each case.
Regarding `COCCOCCOCCOCCOCCOCCOCCOCOc1c(C(C)C)cccc1C(C)C`, the viability at 24 h, 50 µM in data set [1] and in data set [3] was greater than 90% each time. In data set [11], the CMC came out at 0.6 mM. Also, the Activity result in the data set on Rattus norvegicus [14] is recorded as “Toxic”. Also, the 50% effective concentration (EC50) was 130 µM with L929 [2] and 500 µM in the data set with A549 [5]. This molecule registered a solubility in data set [4] of 55.4 mg/mL (≈ 104000 µM).
For the molecule `COCCOCCOCCOCC(=O)Oc1c(C(C)C)cccc1C(C)C`, the viability at 24 h, 50 µM in [1] and in data set [3] was greater than 90% in each case. Besides, the figures for the EC50 in the data set on L929 [2] and in the data set on A549 [5] were 650 µM and 740 µM, respectively. This molecule had a solubility in [4] of 0.99 mg/mL (≈ 2590 µM).
Take `COCCOCCOCCOCCOCCOCCOCCOCCOCCOCCOCOc1c(C(C)C)cccc1C(C)C`: the viability at 24 h, 50 µM in data set [1] and in data set [3] was greater than 90% in each case. In addition, the Activity entry with Rattus norvegicus [14] is on record as “Toxic”. Also, the EC50 came to 210 µM in the data set on L929 [2] and 610 µM in the data set on A549 [5]. In [4], this molecule yielded a solubility greater than 289 mg/mL. Also, the Drug metabolism result in [15] is reported as “Metabolite_Notdetected”.
On to `COCCOCCOCCOCCOCCOCCOCOc1c(C(C)C)cccc1C(C)C`, for which the viability at 24 h, 50 µM in data set [1] and in data set [3] was greater than 90% in each case. For the same molecule, the EC50 in the data set with L929 [2] amounted to 140 µM; in the data set with A549 [5], 510 µM. For the same molecule, in data set [4], the concentration in solution (solubility) came to 1.25 mg/mL (≈ 2570 µM).
As for `COCCOCCOCCOC(=O)Oc1c(C(C)C)cccc1C(C)C`, the viability at 24 h, 50 µM in data set [1] and in data set [3] was greater than 90% each time. For the same molecule, the EC50 with L929 [2] was 2290 µM; in the data set with A549 [5], 2130 µM. In [4], this molecule returned a solubility of 0.19 mg/mL (≈ 516 µM).
As to `COCCOCCOCCOCCOCCOCCOCCOCCOCCOCCO`, the Activity entry in the data set on A549 [12] and in the data set with L929 [13] was “Non-Toxic” each time.
In the case of `COCCOCCOCCOCCOCCOCCOCCOCCOCCOCCOCC(=O)Oc1c(C(C)C)cccc1C(C)C`, the Time in the data set on Rattus norvegicus [7] was determined as 0 s; in the data set on Rattus norvegicus [9], 8.5 min. The viability at 24 h, 50 µM in [1] and in data set [3] was greater than 90% in each case. Besides, the EC50 in the data set on L929 [2] amounted to 490 µM; in the data set on A549 [5], 600 µM. Besides, the Drug metabolism result in data set [16] and in data set [15] was “Metabolite_Detected” each time. Besides, the solubility in data set [4] is greater than 371 mg/mL.
Regarding `CC(C)c1cccc(C(C)C)c1O` [PROPOFOL], the Time with Rattus norvegicus [7] worked out at 0 s; with Rattus norvegicus [9], 10.3 min. Further, the EC50 in the data set with L929 [2] stood at 4730 µM; in the data set with A549 [5] it was 9550 µM.
For the molecule `COCCOCCOCCOCOc1c(C(C)C)cccc1C(C)C`, the viability at 24 h, 50 µM in data set [1] and in [3] was greater than 90% each time. Also, the EC50 was 1170 µM with L929 [2] and greater than 10000 µM in the data set with A549 [5]. In [4], this molecule registered a solubility of 0.28 mg/mL (≈ 790 µM).

The values are drawn from ChEMBL document CHEMBL4261618, “Monodisperse oligoethylene glycols modified Propofol prodrugs” (Bioorg Med Chem Lett, 2018).
